Read-outs that look alike come from different tables or passages of the source.
What was measured:
[1] = test system: extrinsic pathway of coagulation
From the text: The prothrombin time (PT) and its derived measures of prothrombin ratio (PR) and international normalized ratio (INR) are measures of the extrinsic pathway of coagulation. […] The prothrombin time is the time it takes blood plasma to clot after addition of tissue factor (obtained from animals). The result (in seconds) of the prothrombin time performed in a normal individual will vary depending the analytical system and method used. This is due to differences between different batches of manufacturer's tissue factor used to perform the test.
The international normalized ratio (INR) was devised to standardize the results. The INR is the ratio of a patient's prothrombin time (PT) to a normal (control) sample, raised to the power of the International Sensitivity Index (ISI) value for the analytical system used.

[2] = for AUCinf, adjusted geometric mean / AUClast, adjusted geometric mean / Cmax, adjusted geometric mean: healthy subjects, N=25; for pharmacokinetic interaction with LCZ696 (steady-state concentration-time profiles): in the presence and absence of LCZ696, FIG. 1a, 1b
From the text: This study employs a single blind, randomized, two-period, crossover design. All subjects are blinded to the treatment to eliminate study bias. Each subject participates in a screening period, two baseline periods, and two treatment periods. A washout period of at least 10 days but not more than 14 days separates each treatment period.
This study employs a single blind, randomized, two-period, crossover design. Twenty six healthy male and female subjects are enrolled to ensure at least 20 completers. Each subject participates in a screening period (day-21 to day-2), two baseline periods (day-1), two treatment periods, a washout period of at least 10 days separating the treatment periods, and a study completion evaluation. Subjects undergo routine safety testing during screening, including physical, routine hematology, biochemistry, urinalysis, viral serology screening, pregnancy testing (female subjects), urine drug screening, alcohol screening, standard 12-lead electrocardiogram (ECG), and vital signs assessments to establish eligibility.
Subjects are randomized into the following two treatment sequences during treatment Period 1 and Period 2 as shown.
Treatment Period 1: Those subjects who successfully pass screening (Days-21 to -2) report to the study center in the morning of the day prior to the initial dosing (Day-1) for admission into the study center, at which time they undergo baseline safety evaluations as conducted during screening (except viral serology). All baseline safety evaluation results should be available prior to first dosing. Subjects are domiciled for at least 11 days during each treatment period.
Serial samples for drug/placebo pharmacokinetics are collected on Day 4 for up to 12 hours post morning dose.
In the evening prior to each of full pharmacokinetic (PK) assessment days (Day 4 & day 5) the subjects fast overnight (10-12 hours) prior to dosing, and continue to fast until 4 hours post-dose. On Day 1, 2, 3, 6, 7, 8, 9, and 10 the subjects are dosed following an overnight fast of 10-12 hours and receive breakfast 30 minutes post-dose, and evening snacks are provided 30 minutes after evening dosing on all dosing days.
Treatment Period 2: Subjects are required to return to the study center following a washout period of at least 10 days for period 2 baseline evaluation (Day-1). All study related activities including pharmacokinetic sampling for all treatments follow the same schedule as in Period 1.

[3] = healthy subjects, Warfarin 25 mg single dose with LCZ696 200 mg b.i.d. or with placebo, N=25
[4] = LCZ696 200 mg b.i.d. + Warfarin 25 mg single dose on Day 5
[5] = Placebo + Warfarin 25 mg single dose on Day 5

Row | Compound | Mean INR (AUCINR/144), geometric mean [1, 3] | Mean Prothrombin time (AUCPT/144), geometric mean [1, 3] [s] | Peak INR, geometric mean [1, 3] | Peak prothrombin time, geometric mean [1, 3] [s] | interaction with LCZ696 as indicated by the INR ([1]; warfarin (racemic) administration, FIG. 3) | interaction with LCZ696 as indicated by prothrombin times ([1]; warfarin (racemic) in the presence and absence (placebo) of LCZ696, FIG. 2) | AUCinf, adjusted geometric mean [2, 4] [ng·h/mL] | AUClast, adjusted geometric mean [2, 4] [ng·h/mL] | Cmax, adjusted geometric mean [2, 4] [ng/mL] | AUCinf, adjusted geometric mean [2, 5] [ng·h/mL] | AUClast, adjusted geometric mean [2, 5] [ng·h/mL] | Cmax, adjusted geometric mean [2, 5] [ng/mL] | pharmacokinetic interaction with LCZ696 (steady-state concentration-time profiles) [2]
1 | CC(=O)CC(c1ccccc1)c1c(O)c2ccccc2oc1=O (racemic) [Warfarin, (RS)-4-hydroxy-3-(3-oxo-1-phenylbutyl)-2H-chromen-2-one] | 1.30 | 16.51 | 1.90 | 22.00 | lack of interaction | lack of interaction | – | – | – | – | – | – | –
2 | CC(=O)C[C@@H](c1ccccc1)c1c(O)c2ccccc2oc1=O [S-Warfarin] | – | – | – | – | – | – | 50677.20 | 46647.81 | 1344.45 | 52027.31 | 47570.37 | 1414.20 | lack of pharmacokinetic interaction
3 | CC(=O)C[C@H](c1ccccc1)c1c(O)c2ccccc2oc1=O [R-Warfarin] | – | – | – | – | – | – | 64891.96 | 58796.87 | 1325.29 | 66153.48 | 59534.11 | 1373.71 | lack of pharmacokinetic interaction

Source: patent US20140329872A1, “TREATMENT OF HYPERTENSION AND/OR PREVENTION OR TREATMENT OF HEART FAILURE IN A MAMMAL RECEIVING ANTI-COAGULANT THERAPY” (NOVARTIS AG, priority 2010, published 2014)
